Experimental findings from publication PMC9135230, “Extending the lore of curcumin as dipteran Butyrylcholine esterase (BChE) inhibitor: A holistic molecular interplay assessment” (PLoS ONE, 2022) are described below.

Experiment [1] relates to T1, Butyrylcholine esterase (BChE).
T1 construct: larval lysate (4th instar), native enzyme activity
Nature of the experiment: Ellman assay in larval lysate; Michaelis-Menten and Lineweaver-Burk kinetics. The class given is biochemical, Aedes aegypti.

Experiment [2] has the same test system. Nature of the experiment: Ellman assay with S-butyrylthiocholine iodide in larval lysate. Format: biochemical, Aedes aegypti. A general note: DTNB colorimetry detects thiols as they appear.

Each structure is given as a SMILES string.

Usually IC50 stands for the midpoint of a concentration-inhibition curve. The low end stands for inhibition by little substance, the high end for a need for much substance.

`COc1cc(/C=C/C(=O)CC(=O)/C=C/c2ccc(O)c(OC)c2)ccc1O` [curcumin]: inhibition in experiment [1] was half-maximal at 201 µM (IC50).

On to `CCN(C)C(=O)Oc1cccc([C@H](C)N(C)C)c1` [rivastigmine], for which the IC50 in experiment [2] stood at 4.97 µM.
